Values quoted from earlier work, collected in patent US20230172920A1, “DOSING REGIMEN FOR TREATING A DISEASE MODULATED BY CSF-1R” (Novartis AG, priority 2020, published 2023).
Read-outs that look alike come from different tables or passages of the source.

B1: MCS110: monoclonal antibody against CSF-1 ligand (antibody, chains of the INN, looked up, V domains shown)
VH: QVQLQESGPGLVKPSQTLSLTCTVSDYSITSDYAWNWIRQFPGKGLEWMGYISYSGSTSYNPSLKSRITISRDTSKNQFSLQLNSVTAADTAVYYCASFDYAHAMDYWGQGTTVTVSS
VL: DIVLTQSPAFLSVTPGEKVTFTCQASQSIGTSIHWYQQKTDQAPKLLIKYASESISGIPSRFSGSGSGTDFTLTISSVEAEDAADYYCQQINSWPTTFGGGTKLEIK

How the values were obtained:
[1] = cited from earlier work
[2] = Phase 2b/3 clinical trial; cited from earlier work

Molecule | serum enzyme increases in clinical trials ([1]; human, in vivo) | further results
FC(F)(F)c1ccc(CNc2ccc(Cc3c[nH]c4ncc(Cl)cc34)cn2)cn1 [PLX3397, reference compound] |  | serum enzyme increases in clinical trials ([1]; literature reports): Asymptomatic serum enzyme increases
Cc1ccc(NC(=O)c2ccc(CN3CCN(C)CC3)cc2)cc1Nc1nc(-c2cccnc2)cs1 [masitinib] |  | disease progression in patients with ALS [2]: significant delay of disease progression
FPA008: monoclonal antibody against CSF-1R | Asymptomatic serum enzyme increases | 
B1 | Asymptomatic serum enzyme increases | 
